Laboratory results as given in PubChem BioAssay AID1918936 (Molecular Pharmacology Branch, DTP, NCI, 2023).

Tested on: 349418-098-R-PDC complex spheroid viability
Assay: Anticancer human tumor 349418-098-R-PDC patient-derived lung adenocarcinoma cell line growth inhibition
Conditions: for IC50: curve of first compound; for viability, T/C: stronger effect = lower value
Method in brief: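 Drug combinations with the LSD1 inhibitor iadademstat tested on tumor cells co-cultured as spheroids with endothelial cells and mesenchymal stem cells. Concentrations descended in half-log increments from clinical Cmax or 10 microM.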

[1] = second compound 0.1 µM, first compound 0.000316 µM
[2] = second compound 0.1 µM, first compound 0.001 µM
[3] = second compound 0.1 µM, first compound 0.00316 µM
[4] = second compound 0.1 µM, first compound 0.01 µM
[5] = second compound 0.1 µM, first compound 0.0316 µM
[6] = second compound 0.1 µM, first compound 0.1 µM
[7] = second compound 0.316 µM, first compound 0.000316 µM
[8] = second compound 0.316 µM, first compound 0.001 µM
[9] = second compound 0.316 µM, first compound 0.00316 µM
[10] = second compound 0.316 µM, first compound 0.01 µM
[11] = second compound 0.316 µM, first compound 0.0316 µM
[12] = second compound 0.316 µM, first compound 0.1 µM
[13] = second compound 1 µM, first compound 0.000316 µM
[14] = second compound 1 µM, first compound 0.001 µM
[15] = second compound 1 µM, first compound 0.00316 µM
[16] = second compound 1 µM, first compound 0.01 µM
[17] = second compound 1 µM, first compound 0.0316 µM
[18] = second compound 1 µM, first compound 0.1 µM
[19] = second compound 3.16 µM, first compound 0.000316 µM
[20] = second compound 3.16 µM, first compound 0.001 µM
[21] = second compound 3.16 µM, first compound 0.00316 µM
[22] = second compound 3.16 µM, first compound 0.01 µM
[23] = second compound 3.16 µM, first compound 0.0316 µM
[24] = second compound 3.16 µM, first compound 0.1 µM
[25] = second compound 10 µM, first compound 0.000316 µM
[26] = second compound 10 µM, first compound 0.001 µM
[27] = second compound 10 µM, first compound 0.00316 µM
[28] = second compound 10 µM, first compound 0.01 µM
[29] = second compound 10 µM, first compound 0.0316 µM
[30] = second compound 10 µM, first compound 0.1 µM
[31] = second compound 0.1 µM, first compound 0.00949 µM
[32] = second compound 0.1 µM, first compound 0.03 µM
[33] = second compound 0.1 µM, first compound 0.0949 µM
[34] = second compound 0.1 µM, first compound 0.3 µM
[35] = second compound 0.1 µM, first compound 0.949 µM
[36] = second compound 0.1 µM, first compound 3 µM
[37] = second compound 0.316 µM, first compound 0.00949 µM
[38] = second compound 0.316 µM, first compound 0.03 µM
[39] = second compound 0.316 µM, first compound 0.0949 µM
[40] = second compound 0.316 µM, first compound 0.3 µM
[41] = second compound 0.316 µM, first compound 0.949 µM
[42] = second compound 0.316 µM, first compound 3 µM
[43] = second compound 1 µM, first compound 0.00949 µM
[44] = second compound 1 µM, first compound 0.03 µM
[45] = second compound 1 µM, first compound 0.0949 µM
[46] = second compound 1 µM, first compound 0.3 µM
[47] = second compound 1 µM, first compound 0.949 µM
[48] = second compound 1 µM, first compound 3 µM
[49] = second compound 3.16 µM, first compound 0.00949 µM
[50] = second compound 3.16 µM, first compound 0.03 µM
[51] = second compound 3.16 µM, first compound 0.0949 µM
[52] = second compound 3.16 µM, first compound 0.3 µM
[53] = second compound 3.16 µM, first compound 0.949 µM
[54] = second compound 3.16 µM, first compound 3 µM
[55] = second compound 10 µM, first compound 0.00949 µM
[56] = second compound 10 µM, first compound 0.03 µM
[57] = second compound 10 µM, first compound 0.0949 µM
[58] = second compound 10 µM, first compound 0.3 µM
[59] = second compound 10 µM, first compound 0.949 µM
[60] = second compound 10 µM, first compound 3 µM
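Note: spheroids exposed to agents for seven days before readout.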
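Throughout, for viability, T/C: 100% = DMSO vehicle control wells.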

CC(C)CC(NC(=O)C(Cc1ccccc1)NC(=O)c1cnccn1)B(O)O (stereo not given) + NC1CC1c1ccc(-c2cccc(O)c2)cc1
IC50 (second compound 0.1 µM): < 0.316 nM
IC50 (second compound 0.316 µM): < 0.316 nM
IC50 (second compound 1 µM): < 0.316 nM
IC50 (second compound 3.16 µM): < 0.316 nM
IC50 (second compound 10 µM): < 0.316 nM
viability, T/C [1]: 2.67%
viability, T/C [2]: 1.51%
viability, T/C [3]: 1.31%
viability, T/C [4]: 0.5%
viability, T/C [5]: 0.51%
viability, T/C [6]: 0.69%
viability, T/C [7]: 1.86%
viability, T/C [8]: 1.09%
viability, T/C [9]: 0.81%
viability, T/C [10]: 0.41%
viability, T/C [11]: 0.45%
viability, T/C [12]: 0.34%
viability, T/C [13]: 1.69%
viability, T/C [14]: 1.07%
viability, T/C [15]: 0.72%
viability, T/C [16]: 0.42%
viability, T/C [17]: 0.29%
viability, T/C [18]: 0.53%
viability, T/C [19]: 1.62%
viability, T/C [20]: 0.92%
viability, T/C [21]: 0.86%
viability, T/C [22]: 1.06%
viability, T/C [23]: 0.37%
viability, T/C [24]: 0.41%
viability, T/C [25]: 0.84%
viability, T/C [26]: 0.41%
viability, T/C [27]: 0.68%
viability, T/C [28]: 0.31%
viability, T/C [29]: 0.14%
viability, T/C [30]: 0.17%

CC(C)CC(NC(=O)CNC(=O)c1cc(Cl)ccc1Cl)B1OC(=O)CC(CC(=O)O)(C(=O)O)O1 (stereo not given) + NC1CC1c1ccc(-c2cccc(O)c2)cc1
IC50 (second compound 0.1 µM): 0.846 nM
IC50 (second compound 0.316 µM): 0.809 nM
IC50 (second compound 1 µM): 0.802 nM
IC50 (second compound 3.16 µM): 0.839 nM
IC50 (second compound 10 µM): 0.646 nM
viability, T/C [1]: 108%
viability, T/C [2]: 40.2%
viability, T/C [3]: 5.55%
viability, T/C [4]: 2.78%
viability, T/C [5]: 1.26%
viability, T/C [6]: 1.31%
viability, T/C [7]: 114%
viability, T/C [8]: 35.6%
viability, T/C [9]: 4.64%
viability, T/C [10]: 1.64%
viability, T/C [11]: 1.2%
viability, T/C [12]: 0.9%
viability, T/C [13]: 109%
viability, T/C [14]: 36.1%
viability, T/C [15]: 5.1%
viability, T/C [16]: 1.67%
viability, T/C [17]: 1.15%
viability, T/C [18]: 0.9%
viability, T/C [19]: 115%
viability, T/C [20]: 38.4%
viability, T/C [21]: 4.76%
viability, T/C [22]: 1.62%
viability, T/C [23]: 0.95%
viability, T/C [24]: 1.19%
viability, T/C [25]: 94.3%
viability, T/C [26]: 22.8%
viability, T/C [27]: 3.46%
viability, T/C [28]: 1.24%
viability, T/C [29]: 0.47%
viability, T/C [30]: 0.62%

Nc1ccccc1NC(=O)c1ccc(CNC(=O)OCc2cccnc2)cc1 + NC1CC1c1ccc(-c2cccc(O)c2)cc1
IC50 (second compound 0.1 µM): 83.7 nM
IC50 (second compound 0.316 µM): 102 nM
IC50 (second compound 1 µM): 121 nM
IC50 (second compound 3.16 µM): 145 nM
IC50 (second compound 10 µM): 136 nM
viability, T/C [31]: 94%
viability, T/C [32]: 68.2%
viability, T/C [33]: 53.2%
viability, T/C [34]: 20.4%
viability, T/C [35]: 6.54%
viability, T/C [36]: 3.26%
viability, T/C [37]: 102%
viability, T/C [38]: 84.8%
viability, T/C [39]: 53.8%
viability, T/C [40]: 17.8%
viability, T/C [41]: 6.05%
viability, T/C [42]: 3.43%
viability, T/C [43]: 106%
viability, T/C [44]: 83.1%
viability, T/C [45]: 61.2%
viability, T/C [46]: 22.6%
viability, T/C [47]: 6.06%
viability, T/C [48]: 3.46%
viability, T/C [49]: 102%
viability, T/C [50]: 84.4%
viability, T/C [51]: 67.9%
viability, T/C [52]: 23.9%
viability, T/C [53]: 6.45%
viability, T/C [54]: 2.77%
viability, T/C [55]: 93.3%
viability, T/C [56]: 81.7%
viability, T/C [57]: 64.3%
viability, T/C [58]: 21.7%
viability, T/C [59]: 5.86%
viability, T/C [60]: 2.77%

O=C(C=Cc1cccc(S(=O)(=O)Nc2ccccc2)c1)NO + NC1CC1c1ccc(-c2cccc(O)c2)cc1
IC50 (second compound 0.1 µM): 54.8 nM
IC50 (second compound 0.316 µM): 54.7 nM
IC50 (second compound 1 µM): 53.8 nM
IC50 (second compound 3.16 µM): 59.5 nM
IC50 (second compound 10 µM): 36.4 nM
viability, T/C [31]: 76%
viability, T/C [32]: 70%
viability, T/C [33]: 20.3%
viability, T/C [34]: 3.17%
viability, T/C [35]: 0.96%
viability, T/C [36]: 103%
viability, T/C [37]: 76.8%
viability, T/C [38]: 70.2%
viability, T/C [39]: 19.2%
viability, T/C [40]: 3.03%
viability, T/C [41]: 0.63%
viability, T/C [42]: 103%
viability, T/C [43]: 83.1%
viability, T/C [44]: 68.7%
viability, T/C [45]: 20.3%
viability, T/C [46]: 3.41%
viability, T/C [47]: 0.58%
viability, T/C [48]: 103%
viability, T/C [49]: 77.7%
viability, T/C [50]: 78.5%
viability, T/C [51]: 22.2%
viability, T/C [52]: 3.57%
viability, T/C [53]: 0.78%
viability, T/C [54]: 96.6%
viability, T/C [55]: 81.5%
viability, T/C [56]: 56.3%
viability, T/C [57]: 14.6%
viability, T/C [58]: 3.03%
viability, T/C [59]: 0.44%
viability, T/C [60]: 58.3%
